Reference: patent US11795165B2, “Tetrahydro-benzoazepine glycosidase inhibitors” (Asceneuron SA, priority 2018, dated 2023)

Molecular target: His-Tagged hOGA (human O-GlcNAcase) (Homo sapiens (Human), UniProt O60502)
Assay: Human O-GlcNAcase enzyme inhibition assay (OGA enzyme inhibition assay)
Format: biochemical
Settings: His-Tagged hOGA 20 nM, FL-GlcNAc 10 μM, 60 min at room temperature, pH 6.5; activity classes
Method: Example B01: Human O-GlcNAcase Enzyme Inhibition Assay
5 μl of the appropriate concentration of a solution of inhibitor in McIlvaine's Buffer (pH 6.5) in 2% DMSO (for a dose response curve calculation) is added into each well of a 384-well plate (Greiner, 781900). Then, 20 nM of His-Tagged hOGA and 10 μM of FL-GlcNAc (Fluorescein mono-beta-D-(2-deoxy-2-N-acetyl) glucopyranoside; Marker Gene Technologies Inc, M1485) were added to the 384-well plate for a final volume of 20 μl. After incubation for 60 min at room temperature, the reaction was terminated by the addition of 10 μL of stop buffer (200 mM glycine, pH 10.75). The level of fluorescence (Δexc 485 nm; (Δemm 520 nm) was read on a PHERAstar machine. The amount of fluorescence measured was plotted against the concentration of inhibitor to produce a sigmoidal dose response curve to calculate an IC50. All individual data was corrected by subtraction of the background (Thiamet 3 uM=100% inhibition) whilst 0.5% DMSO was considered as the control value (no inhibition).

His-Tagged hOGA (human O-GlcNAcase), sequence (O60502 whole entry): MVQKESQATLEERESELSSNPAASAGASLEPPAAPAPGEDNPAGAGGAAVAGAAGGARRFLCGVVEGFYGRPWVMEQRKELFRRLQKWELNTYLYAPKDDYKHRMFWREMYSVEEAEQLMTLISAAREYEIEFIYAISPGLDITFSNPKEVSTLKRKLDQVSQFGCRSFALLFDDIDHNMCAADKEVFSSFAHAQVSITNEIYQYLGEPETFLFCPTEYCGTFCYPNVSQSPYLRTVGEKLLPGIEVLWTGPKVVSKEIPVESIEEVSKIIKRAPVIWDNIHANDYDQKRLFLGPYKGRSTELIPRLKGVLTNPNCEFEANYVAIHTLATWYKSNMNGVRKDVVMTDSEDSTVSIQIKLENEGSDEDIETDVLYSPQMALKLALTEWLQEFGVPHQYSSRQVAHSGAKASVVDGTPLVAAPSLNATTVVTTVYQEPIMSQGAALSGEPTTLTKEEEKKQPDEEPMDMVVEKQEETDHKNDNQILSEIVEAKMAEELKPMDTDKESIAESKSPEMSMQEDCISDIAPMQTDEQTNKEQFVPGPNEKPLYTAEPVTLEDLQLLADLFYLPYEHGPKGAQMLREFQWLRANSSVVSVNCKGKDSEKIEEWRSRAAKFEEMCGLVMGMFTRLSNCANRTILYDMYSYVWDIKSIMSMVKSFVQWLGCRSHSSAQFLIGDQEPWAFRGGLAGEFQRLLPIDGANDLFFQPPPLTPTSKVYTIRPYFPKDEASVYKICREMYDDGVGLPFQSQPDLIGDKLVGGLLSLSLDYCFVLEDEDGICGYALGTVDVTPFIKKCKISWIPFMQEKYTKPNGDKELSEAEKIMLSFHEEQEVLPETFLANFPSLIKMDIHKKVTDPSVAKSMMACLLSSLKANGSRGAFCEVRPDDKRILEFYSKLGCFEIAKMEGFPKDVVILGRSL

With `CC(C)COc1ccc2c(c1)CCN(C(C)c1ccc3scnc3c1)CC2` (single isomer, unassigned) [Example 27, (R)-5-(1-(7-isobutoxy-1,2,4,5-tetrahydro-3H-benzo[d]azepin-3-yl)ethyl)benzo[d]thiazole or (S)-5-(1-(7-isobutoxy-1,2,4,5-tetrahydro-3H-benzo[d]azepin-3-yl)ethyl)benzo[d]thiazole] as the compound, how does the IC50 read?
The IC50 was 200 to 1000 nM.

`CC(C)Oc1ccc2c(c1)CCN(C(C)c1ccc3scnc3c1)CC2` (racemic) [Example 25, 5-(1-(7-isopropoxy-1,2,4,5-tetrahydro-3H-benzo[d]azepin-3-yl)ethyl)benzo[d]thiazole] was tested. Which IC50 did it give?
The IC50 was 50 to 200 nM.

Which IC50 does the source give for `CC(c1ccc2scnc2c1)N1CCCc2cc(S(C)(=O)=O)ccc2C1` (racemic) [Example 17, 5-(1-(7-(methylsulfonyl)-1,3,4,5-tetrahydro-2H-benzo[c]azepin-2-yl)ethyl)benzo[d]thiazole] here?
The IC50 was 200 to 1000 nM.

Which IC50 does the source give for `CC(c1ccc2scnc2c1)N1CCc2ccc(S(C)(=N)=O)cc2CC1` (centres unmarked) [Example 113] here?
Its IC50 is < 50 nM.

With `CC(=O)Nc1ccc2c(c1)CCCN(C(C)c1ccc3scnc3c1)C2` (racemic) [Example 107] as the compound, how does the IC50 read?
The IC50 was 200 to 1000 nM.

With `CC(c1ccc2scnc2c1)N1CCc2ccccc2CC1` (single isomer, unassigned) [Example 22] as the compound, how does the IC50 read?
The IC50 was 200 to 1000 nM.

How did the IC50 turn out when `CC(c1ccc2scnc2c1)N1CCc2ccc(Oc3cccc(F)n3)cc2CC1` (racemic) [Example 23, 5-(1-(7-((6-fluoropyridin-2-yl)oxy)-1,2,4,5-tetrahydro-3H-benzo[d]azepin-3-yl)ethyl)benzo[d]thiazole] was run?
Its IC50 is < 50 nM.

Which IC50 does the source give for `CC(c1ccc2scnc2c1)N1CCc2ccc(-c3ccccn3)cc2CC1` (racemic) [Example 32, 5-(1-(7-(pyridin-2-yl)-1,2,4,5-tetrahydro-3H-benzo[d]azepin-3-yl)ethyl)benzo[d]thiazole] here?
The IC50 was 1000 to 10000 nM.

`CC(c1ccc2scnc2c1)N1CCc2ccc(C#N)cc2CC1` (racemic) [Example 16, 3-(1-(benzo[d]thiazol-5-yl)ethyl)-2,3,4,5-tetrahydro-1H-benzo[d]azepine-7-carbonitrile] was tested. Which IC50 did it give?
The IC50 was < 50 nM.

`CC(c1ccc2scnc2c1)N1CCc2cc(S(C)(=N)=O)cnc2CC1` (racemic) [Example 52] was tested. Which IC50 did it give?
The IC50 was < 50 nM.

With `CC(c1ccc2scnc2c1)N1CCc2ccccc2CC1` (racemic) [Example 20, 5-(1-(1,2,4,5-tetrahydro-3H-benzo[d]azepin-3-yl)ethyl)benzo[d]thiazole] as the compound, how does the IC50 read?
The IC50 was < 50 nM.

With `CC(c1ccc2scnc2c1)N1CCc2cc(N)cnc2CC1` (racemic) [Example 117] as the compound, how does the IC50 read?
The IC50 was < 50 nM.

With `CC(c1ccc2scnc2c1)N1CCCc2cc(Br)ccc2C1` (racemic) [Example 13, 5-(1-(7-bromo-1,3,4,5-tetrahydro-2H-benzo[c]azepin-2-yl)ethyl)benzo[d]thiazole] as the compound, how does the IC50 read?
Its IC50 is 200 to 1000 nM.

`CSc1ccc2c(c1)CCCN(C(C)c1ccc3scnc3c1)C2` (racemic) [Example 112] was tested. Which IC50 did it give?
Its IC50 is 200 to 1000 nM.
